The target in the test is T1, Recombinant human liver GK1 (GST-GK) (Homo sapiens, UniProt P35557).
T1 construct: made in house; host or cells: E. coli
T1 sequence (P35557 1-466 isoform P35557-2): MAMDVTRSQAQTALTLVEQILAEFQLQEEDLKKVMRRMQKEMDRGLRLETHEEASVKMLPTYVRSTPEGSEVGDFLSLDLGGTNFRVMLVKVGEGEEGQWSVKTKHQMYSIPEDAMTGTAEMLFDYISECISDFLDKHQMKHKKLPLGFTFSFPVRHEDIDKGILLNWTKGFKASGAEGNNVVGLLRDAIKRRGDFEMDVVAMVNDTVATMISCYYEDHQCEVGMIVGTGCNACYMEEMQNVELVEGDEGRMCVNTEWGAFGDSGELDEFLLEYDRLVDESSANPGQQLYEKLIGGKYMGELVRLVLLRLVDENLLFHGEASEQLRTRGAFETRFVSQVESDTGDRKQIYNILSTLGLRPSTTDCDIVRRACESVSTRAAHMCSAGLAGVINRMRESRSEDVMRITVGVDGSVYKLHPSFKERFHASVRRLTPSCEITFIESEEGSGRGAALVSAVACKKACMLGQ
The experiment in a line: In vitro glucokinase activity, G6PDH-coupled spectrophotometric assay. To be noted: 5 mM D-glucose, 30° C.; for SC1.5 (concentration of activator that produced a 50% increase in the activity of GK): pH 7.1. The format is biochemical. An outline of the steps:
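GST-fused human liver GK1 from E. coli, run at 30° C. in pH 7.1 HEPES with 5 mM glucose, 1 mM ATP and 10% DMSO, coupled via G6PDH to NADH. OD340 rate measured after enzyme start; SC1.5 is the activator concentration raising activity 50% over DMSO control.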

Here are results for 31 molecules from patent US20120142705A1, “ISATIN AND OXINDOLE COMPOUNDS” (priority 2010, published 2012).

With `Cc1ccc2c(c1)CC(=O)N2C(CC1CCCC1)C(=O)Nc1ccn(C)n1` (stereo not shown) [Example 81, 3-Cyclopentyl-2-(5-methyl-2-oxo-2,3-dihydro-indol-1-yl)-N-(1-methyl-1H-pyrazol-3-yl)-propionamide], the “SC1.5 (concentration of activator that produced a 50% increase in the activity of GK)” value came to 11.29 µM.

As to `Cc1ccc2c(c1)CC(=O)N2C(CC1CCCC1)C(=O)Nc1nccs1` (stereo not shown) [Example 82, 3-Cyclopentyl-2-(5-methyl-2-oxo-2,3-dihydro-indol-1-yl)-N-thiazol-2-yl-propionamide], the “SC1.5 (concentration of activator that produced a 50% increase in the activity of GK)” value is 2.45 µM.

On to `Cc1ccc2c(c1)CC(=O)N2C(CC1CCCC1)C(=O)Nc1cnccn1` (stereo not shown) [Example 83, 3-Cyclopentyl-2-(5-methyl-2-oxo-2,3-dihydro-indol-1-yl)-N-pyrazin-2-yl-propionamide], for which the “SC1.5 (concentration of activator that produced a 50% increase in the activity of GK)” value was determined as 4.47 µM.

With `Cc1ccc2c(c1)C(=O)C(=O)N2C(CC(C)C)C(=O)Nc1cnccn1` (stereo not shown) [Example 84, 4-Methyl-2-(5-methyl-2,3-dioxo-2,3-dihydro-indol-1-yl)-pentanoic acid pyrazin-2-ylamide], the fold induction – broadly, the signal under treatment as a multiple of the control signal – at 30 µM amounted to 1.29.

For `Cc1ccc2c(c1)C(=O)C(=O)N2C(CC(C)C)C(=O)Nc1ccccn1` (stereo not shown) [Example 85, 4-Methyl-2-(5-methyl-2,3-dioxo-2,3-dihydro-indol-1-yl)-pentanoic acid pyridin-2-ylamide], the fold induction at 30 µM stood at 1.16.

As for `Cc1ccc2c(c1)C(=O)C(=O)N2C(CC(C)C)C(=O)Nc1ccn(C)n1` (stereo not shown) [Example 86, 4-Methyl-2-(5-methyl-2,3-dioxo-2,3-dihydro-indol-1-yl)-pentanoic acid (1-methyl-1H-pyrazol-3-yl)-amide], the fold induction at 30 µM came to 1.44.

On to `Cc1ccc2c(c1)C(=O)C(=O)N2C(CC(C)C)C(=O)Nc1nccs1` (stereo not shown) [Example 87, 4-Methyl-2-(5-methyl-2,3-dioxo-2,3-dihydro-indol-1-yl)-pentanoic acid thiazol-2-ylamide], for which the fold induction at 30 µM came out at 1.16.

In the case of `Cc1ccc2c(c1)CC(=O)N2C(CC(C)C)C(=O)Nc1nccs1` (stereo not shown) [Example 88, 4-Methyl-2-(5-methyl-2-oxo-2,3-dihydro-indol-1-yl)-pentanoic acid thiazol-2-ylamide], the “SC1.5 (concentration of activator that produced a 50% increase in the activity of GK)” value stood at 22.88 µM.

Regarding `Cc1ccc2c(c1)CC(=O)N2C(CC(C)C)C(=O)Nc1ccn(C)n1` (stereo not shown) [Example 89, 4-Methyl-2-(5-methyl-2-oxo-2,3-dihydro-indol-1-yl)-pentanoic acid (1-methyl-1H-pyrazol-3-yl)-amide], the fold induction at 30 µM was 1.23.

For `Cc1ccc2c(c1)CC(=O)N2C(CC(C)C)C(=O)Nc1ccccn1` (stereo not shown) [Example 90, 4-Methyl-2-(5-methyl-2-oxo-2,3-dihydro-indol-1-yl)-pentanoic acid pyridin-2-ylamide], the “SC1.5 (concentration of activator that produced a 50% increase in the activity of GK)” value is 12.84 µM.

Regarding `Cc1ccc2c(c1)CC(=O)N2C(CC(C)C)C(=O)Nc1cnccn1` (stereo not shown) [Example 91, 4-Methyl-2-(5-methyl-2-oxo-2,3-dihydro-indol-1-yl)-pentanoic acid pyrazin-2-ylamide], the “SC1.5 (concentration of activator that produced a 50% increase in the activity of GK)” value was 28.45 µM.

In the case of `O=C1C(=O)N(C(CC2CCCC2)C(=O)Nc2nccs2)c2ccc(Cl)cc21` (stereo not shown) [Example 92, 2-(5-Chloro-2,3-dioxo-2,3-dihydro-indol-1-yl)-3-cyclopentyl-N-thiazol-2-yl-propionamide], the “SC1.5 (concentration of activator that produced a 50% increase in the activity of GK)” value is 3.01 µM.

As for `O=C1C(=O)N(C(CC2CCCC2)C(=O)Nc2ccn(C[C@@H](O)CO)n2)c2ccc(Cl)cc21` (stereo partly drawn) [Example 93, 2-(5-Chloro-2,3-dioxo-2,3-dihydro-indol-1-yl)-3-cyclopentyl-N-[1-((R)-2,3-dihydroxy-propyl)-1H-pyrazol-3-yl]-propionamide], the “SC1.5 (concentration of activator that produced a 50% increase in the activity of GK)” value came out at 3.36 µM.

`O=C1C(=O)N(C(CC2CCCC2)C(=O)Nc2ccccn2)c2ccc(Cl)cc21` (stereo not shown) [Example 94, 2-(5-Chloro-2,3-dioxo-2,3-dihydro-indol-1-yl)-3-cyclopentyl-N-pyridin-2-yl-propionamide]: the “SC1.5 (concentration of activator that produced a 50% increase in the activity of GK)” value amounted to 1.04 µM.

Regarding `Cn1ccc(NC(=O)C(CC2CCCC2)N2C(=O)C(=O)c3cc(Cl)ccc32)n1` (stereo not shown) [Example 95, 2-(5-Chloro-2,3-dioxo-2,3-dihydro-indol-1-yl)-3-cyclopentyl-N-(1-methyl-1H-pyrazol-3-yl)-propionamide], the “SC1.5 (concentration of activator that produced a 50% increase in the activity of GK)” value was found to be 7.27 µM.

Take `O=C1C(=O)N(C(CC2CCCC2)C(=O)Nc2cnccn2)c2ccc(Cl)cc21` (stereo not shown) [Example 96, 2-(5-Chloro-2,3-dioxo-2,3-dihydro-indol-1-yl)-3-cyclopentyl-N-pyrazin-2-yl-propionamide]: the “SC1.5 (concentration of activator that produced a 50% increase in the activity of GK)” value is 4.04 µM.

As for `O=C(Nc1cnccn1)C(CC1CCCC1)N1C(=O)Cc2cc(Cl)ccc21` (stereo not shown) [Example 97, 2-(5-Chloro-2-oxo-2,3-dihydro-indol-1-yl)-3-cyclopentyl-N-pyrazin-2-yl-propionamide], the “SC1.5 (concentration of activator that produced a 50% increase in the activity of GK)” value came to 1.84 µM.

With `O=C(Nc1nccs1)C(CC1CCCC1)N1C(=O)Cc2cc(Cl)ccc21` (stereo not shown) [Example 98, 2-(5-Chloro-2-oxo-2,3-dihydro-indol-1-yl)-3-cyclopentyl-N-thiazol-2-yl-propionamide], the “SC1.5 (concentration of activator that produced a 50% increase in the activity of GK)” value was 1.22 µM.

As for `Cn1ccc(NC(=O)C(CC2CCCC2)N2C(=O)Cc3cc(Cl)ccc32)n1` (stereo not shown) [Example 99, 2-(5-Chloro-2-oxo-2,3-dihydro-indol-1-yl)-3-cyclopentyl-N-(1-methyl-1H-pyrazol-3-yl)-propionamide], the “SC1.5 (concentration of activator that produced a 50% increase in the activity of GK)” value turned out to be 3.3 µM.

In the case of `O=C(Nc1ccccn1)C(CC1CCCC1)N1C(=O)Cc2cc(Cl)ccc21` (stereo not shown) [Example 100, 2-(5-Chloro-2-oxo-2,3-dihydro-indol-1-yl)-3-cyclopentyl-N-pyridin-2-yl-propionamide], the “SC1.5 (concentration of activator that produced a 50% increase in the activity of GK)” value turned out to be 0.49 µM.

In the case of `CC(C)CC(C(=O)Nc1nccs1)N1C(=O)C(=O)c2cc(Cl)ccc21` (stereo not shown) [Example 101, 2-(5-Chloro-2,3-dioxo-2,3-dihydro-indol-1-yl)-4-methyl-pentanoic acid thiazol-2-ylamide], the fold induction at 30 µM worked out at 1.4.

Turning to `CC(C)CC(C(=O)Nc1ccccn1)N1C(=O)C(=O)c2cc(Cl)ccc21` (stereo not shown) [Example 102, 2-(5-Chloro-2,3-dioxo-2,3-dihydro-indol-1-yl)-4-methyl-pentanoic acid pyridin-2-ylamide], the “SC1.5 (concentration of activator that produced a 50% increase in the activity of GK)” value amounted to 16.89 µM.

As for `CC(C)CC(C(=O)Nc1cnccn1)N1C(=O)C(=O)c2cc(Cl)ccc21` (stereo not shown) [Example 103, 2-(5-Chloro-2,3-dioxo-2,3-dihydro-indol-1-yl)-4-methyl-pentanoic acid pyrazin-2-ylamide], the fold induction at 30 µM is 1.3.

`CC(C)CC(C(=O)Nc1ccn(C)n1)N1C(=O)C(=O)c2cc(Cl)ccc21` (stereo not shown) [Example 104, 2-(5-Chloro-2,3-dioxo-2,3-dihydro-indol-1-yl)-4-methyl-pentanoic acid (1-methyl-1H-pyrazol-3-yl)-amide]: the fold induction at 30 µM is 1.21.

For `CC(C)CC(C(=O)Nc1nccs1)N1C(=O)Cc2cc(Cl)ccc21` (stereo not shown) [Example 105, 2-(5-Chloro-2-oxo-2,3-dihydro-indol-1-yl)-4-methyl-pentanoic acid thiazol-2-ylamide], the “SC1.5 (concentration of activator that produced a 50% increase in the activity of GK)” value amounted to 6.74 µM.

Regarding `CC(C)CC(C(=O)Nc1cnccn1)N1C(=O)Cc2cc(Cl)ccc21` (stereo not shown) [Example 106, 2-(5-Chloro-2-oxo-2,3-dihydro-indol-1-yl)-4-methyl-pentanoic acid pyrazin-2-ylamide], the “SC1.5 (concentration of activator that produced a 50% increase in the activity of GK)” value stood at 20.67 µM.

As for `CC(C)CC(C(=O)Nc1ccn(C)n1)N1C(=O)Cc2cc(Cl)ccc21` (stereo not shown) [Example 107, 2-(5-Chloro-2-oxo-2,3-dihydro-indol-1-yl)-4-methyl-pentanoic acid (1-methyl-1H-pyrazol-3-yl)-amide], the fold induction at 30 µM is 1.22.

For `CC(C)CC(C(=O)Nc1ccccn1)N1C(=O)Cc2cc(Cl)ccc21` (stereo not shown) [Example 108, 2-(5-Chloro-2-oxo-2,3-dihydro-indol-1-yl)-4-methyl-pentanoic acid pyridin-2-ylamide], the “SC1.5 (concentration of activator that produced a 50% increase in the activity of GK)” value was found to be 4.95 µM.

In the case of `CC(C)CC(C(=O)Nc1nccs1)N1C(=O)C(=O)c2ccc(Cl)cc21` (stereo not shown) [Example 109, 2-(6-Chloro-2,3-dioxo-2,3-dihydro-indol-1-yl)-4-methyl-pentanoic acid thiazol-2-ylamide], the “SC1.5 (concentration of activator that produced a 50% increase in the activity of GK)” value amounted to 3.29 µM.

On to `CC(C)CC(C(=O)Nc1ccccn1)N1C(=O)C(=O)c2ccc(Cl)cc21` (stereo not shown) [Example 110, 2-(6-Chloro-2,3-dioxo-2,3-dihydro-indol-1-yl)-4-methyl-pentanoic acid pyridin-2-ylamide], for which the “SC1.5 (concentration of activator that produced a 50% increase in the activity of GK)” value is 1.49 µM.

As to `CC(C)CC(C(=O)Nc1ccn(C)n1)N1C(=O)C(=O)c2ccc(Cl)cc21` (stereo not shown) [Example 111, 2-(6-Chloro-2,3-dioxo-2,3-dihydro-indol-1-yl)-4-methyl-pentanoic acid (1-methyl-1H-pyrazol-3-yl)-amide], the “SC1.5 (concentration of activator that produced a 50% increase in the activity of GK)” value turned out to be 15.93 µM.
